Laboratory results from patent US20230219898A1, “COMPOUNDS AND METHODS FOR BLOCKING APOPTOSIS AND INDUCING AUTOPHAGY” (President and Fellows of Harvard College, priority 2020, published 2023).

Key:
GST-TRADD = biological target: T1, GST-TRADD (Homo sapiens, UniProt Q15628); experiment: Thermal shift assay with GST-TRADD; format: binding; conditions: GST-TRADD 50 μM, compound 250 μM
T1 construct: cDNA encoding GST-tagged hTRADD (Full length or aa180-312); made in house; host or cells: HEK293T (pEBG plasmid)
Description: Thermal unfolding of GST-TRADD is monitored using SYPRO Orange. Data were collected in the presence of ICCB-19 and Apt-1, leading to a rightward shift in the unfolding transition. The apparent melting temperature (Tm) is the peak in the derivative of the unfolding curve (dF/dT), which is used as an indicator of thermal stability.
Full-length cDNAs for mouse/human TRADD were PCR-amplified from the plasmid library and cloned into pcDNA3.1 using Phanta Max Super-Fidelity DNA Polymerase (Vazyme Biotech Co., Ltd) with appropriate tags. Mutant hTRADD were generated using MutExpress II mutagenesis kit (Vazyme Biotech Co., Ltd). […]
To determine stability, purified proteins were made to a final concentration of 1 μg/l. […] The reaction was run from 25C, ramping up in increments of 0.05° C./s to a final temperature of 95C with fluorescence detection throughout the experiment to generate a dataset. Melting temperature of the protein (Tm) was determined by performing non-linear fitting of the dataset to a Boltzmann Sigmoidal curve in GraphPad Prism with the following equation: Y=Bottom+(Top-Bottom)/[1+exp(Tm-X/Slope)], where Y=fluorescence emission in arbitrary units; X=temperature; Bottom=baseline fluorescence at low temperature; Top=maximal fluorescence at top of the dataset; Slope=describes the steepness of the curve, with larger values denoting shallower curves.

GST-TRADD-C = biological target: T2, GST-TRADD-C (Homo sapiens, UniProt Q15628); experiment: Thermal shift assay with GST-TRADD-C; format: binding; conditions: GST-TRADD-C 50 μM, compound 250 μM
T2 construct: cDNA encoding GST-tagged hTRADD (Full length or aa180-312); made in house; host or cells: mammalian cells (pEBG plasmid)
Protocol: To determine stability, purified proteins were made to a final concentration of […]. SYPRO Orange dye was added to the protein to make a final concentration of 2×. Compounds were added in the mix with a final concentration of 250 μM or as indicated and incubated at 4C for 1 h. The experiments were performed in 384-well plates specific for real-time PCR instrument with a total volume of 20 μl/well. The assay plate was covered with a sheet of optically clear adhesive to seal each well. The assay plate was centrifuged at 800×g for 2 min at 25C to collect solutions in the bottom of the well and remove bubbles. The assay plate was placed into the Applied Biosystems QuantStudio 6 Real-Time PCR System. The reaction was run from 25C, ramping up in increments of 0.05° C./s to a final temperature of 95C with fluorescence detection throughout the experiment to generate a dataset. Melting temperature of the protein (Tm) was determined by performing non-linear fitting of the dataset to a Boltzmann Sigmoidal curve in GraphPad Prism with the following equation: Y=Bottom+(Top-Bottom)/[1+exp(Tm-X/Slope)], where Y=fluorescence emission in arbitrary units; X=temperature; Bottom=baseline fluorescence at low temperature; Top=maximal fluorescence at top of the dataset; Slope=describes the steepness of the curve, with larger values denoting shallower curves.

MEFs = experiment: Necroptosis of MEFs induced by TNFα/5z7/zVAD; format: cell-based, mouse; conditions: 10 μM
Protocol: The concentrations of reagents used: mTNFα: 1 ng/mL; (5Z)-7-oxozeaenol: 0.5 μM; zVAD: 20 μM; ICCB-19: 10 μM; Apt-1: 10 μM; Nec-1s: 10 μM. Mean s.d. from technical triplicates (n=3), representative of 3 independent experiments.

TRADD-N and TRADD-C = biological target: T3, TRADD-N and TRADD-C (Homo sapiens, UniProt Q15628); experiment: NanoBiT protein-protein interaction assay TRADD-N / TRADD-C; format: cell-based; conditions: 4 h
T3 construct: expression constructs encoding Flag-TRADD-N(1-179) and HA-TRADD-C(180-312); expressed in transfected cells; host or cells: HEK293T
Protocol: Constructs were made encoding LgBiT and SmBiT fused to the N and C termini of TRADD-N and TRADD-C, respectively. HEK293T cells were transfected with these two plasmids for 24 h and then treated with indicated compounds for 4 h. The luminescence indicating the interaction of TRADD-N and TRADD-C was measured using Nano-Glo Live Cell Reagent. Mean ±s.d. from quintuplicates (n=5).
The Nano-Glo Live Cell assay kit (Promega) was used as follows: HEK293T cells were seeded at 7.5×10^3 cells per well in a white, clear-bottom 96-well plate 12 h before transfection (10 ng LgBiT-fused construct and 10 ng SmBiT-fused construct). After 24 h incubation, medium was removed and replaced with 100 μl Opti-MEM medium for 1 h at 37C. The Nano-Glo reagent was prepared as per manufacturer's instructions and added to each well immediately before the luminescence reading was taken. Luminescence was measured at 1 min intervals for 10 min on a plate reader and reported as relative light units (RLU). For quantitative comparison of LgBiT-SmBiT interactions, the peak values at the 2-3 min time point were used. Concentration of compounds used in NanoBiT assay: 10 μM (Apt-1, ICCB-19 or ICCB-19i).

T1 sequence (Q15628 whole entry, the tested form may be a part): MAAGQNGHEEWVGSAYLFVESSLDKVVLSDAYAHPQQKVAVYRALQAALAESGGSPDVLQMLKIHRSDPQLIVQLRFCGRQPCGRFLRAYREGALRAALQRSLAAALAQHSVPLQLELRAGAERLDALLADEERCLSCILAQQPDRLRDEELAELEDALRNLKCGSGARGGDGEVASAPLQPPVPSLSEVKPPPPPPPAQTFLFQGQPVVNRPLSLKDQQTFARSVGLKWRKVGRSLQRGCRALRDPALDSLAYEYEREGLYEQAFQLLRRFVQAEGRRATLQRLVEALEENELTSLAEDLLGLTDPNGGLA
T2 sequence (Q15628 180-312): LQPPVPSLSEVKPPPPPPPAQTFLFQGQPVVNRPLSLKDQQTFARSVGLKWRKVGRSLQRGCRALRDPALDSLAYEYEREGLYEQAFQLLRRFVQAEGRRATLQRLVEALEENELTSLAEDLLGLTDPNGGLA
T3 sequence (Q15628 1-179): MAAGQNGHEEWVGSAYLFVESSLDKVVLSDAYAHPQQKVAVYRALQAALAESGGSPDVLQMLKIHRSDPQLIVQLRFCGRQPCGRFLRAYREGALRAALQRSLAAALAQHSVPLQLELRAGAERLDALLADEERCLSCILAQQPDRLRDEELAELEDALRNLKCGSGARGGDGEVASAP

| SMILES | increase of Tm of GST-TRADD (GST-TRADD) | binding to GST-TRADD-C (GST-TRADD-C) | inhibition of necroptosis (MEFs) | NanoBit interaction signal between LgBiT-TRADD-N and TRADD-C-SmBiT (TRADD-N and TRADD-C) |
| --- | --- | --- | --- | --- |
| CN1CCN=C1SC(C(=O)NC1CCCCCC1)c1ccccc1 (centres unmarked) [Compound 30] | 3.7 °C | does not bind | partially inhibited | dose-dependently reduced |
| O=C(CSC1=NCCN1)NC1CCCCCC1 [ICCB-19] | 3.2 °C | does not bind | partially inhibited | dose-dependently reduced |
